Values after ≈ are worked out from the molar mass of the structure shown.
Key:
Type in all cases: physicochemical
log P of Compound 1 = assay: log P of Compound 1
[1] = Solubility screens for formulation strategies (lipidic, mesoporous silica, spray drying)
Excerpt: The inventors investigated multiple strategies to make an effective solid formulation, including: • Conventional immediate release tablets. […] Screen of co-crystal former molecules was unsuccessful in identifying a suitable co-crystal form. • Lipid formulation: Compound 1 is a neutral molecule, and not lipophilic.

physchem [2] = assay: physchem
physchem [3] = assay: physchem; remark: listed apart in the source

With `Cc1cc(-c2nnc(N)nc2-c2ccc(F)cc2)cc(Cl)n1` [Compound 1, 6-(2-chloro-6-methylpyridin-4-yl)-5-(4-fluorophenyl)-1,2,4-triazin-3-amine] the logP (log P of Compound 1) was 2.8, the “solubility in solvents suitable for spray drying” value [1] was “limited solubility” and the “solubility in suitable solvent for mesoporous silica formulation” value [1] was “inadequate”. For the same compound, the “solubility in suitable excipients for a lipidic formulation” value ([1]; lipidic screen) was “did not show significant solubility”, the solubility (physchem [2]; fassif) was 5.8 µg/mL (≈ 18.4 µM) and the solubility (physchem [2]; pH 1.2, simulated gastric fluid) was 29.8 µg/mL (≈ 94.4 µM). For the same compound, the solubility (physchem [2]; pH 7, aqueous buffer) was under 5 µg/mL and the pKa (physchem [3]) was 1.78.
